The text below walks through data of ChEMBL document CHEMBL4739716, “Gpr139 receptor modulators” (2020).

Bounds are passed on as bounds.

The target in assay [1] is T1, Probable G-protein coupled receptor 139 (Homo sapiens) (UniProt Q6DWJ6).
T1 sequence (whole entry): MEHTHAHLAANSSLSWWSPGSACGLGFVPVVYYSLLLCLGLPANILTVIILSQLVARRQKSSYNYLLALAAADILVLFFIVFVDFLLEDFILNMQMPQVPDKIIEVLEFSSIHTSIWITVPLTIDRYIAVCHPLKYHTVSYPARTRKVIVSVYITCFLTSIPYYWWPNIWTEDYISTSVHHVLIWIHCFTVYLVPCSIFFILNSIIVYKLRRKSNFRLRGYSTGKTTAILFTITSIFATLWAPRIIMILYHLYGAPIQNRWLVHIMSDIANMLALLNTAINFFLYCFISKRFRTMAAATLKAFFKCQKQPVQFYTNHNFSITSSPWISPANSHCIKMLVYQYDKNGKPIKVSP
Nature of the assay: Agonist activity at human GPR139 expressed in CHO-K1 cells assessed as induction of beta-arrestin 2 recruitment incubated for 90 mins by PathHunter assay relative to JNJ63533054. The format is cell-based. In general terms: Activated receptors often draw arrestin, which recruitment assays turn into a signal.

For assay [2], the target named is T1, Probable G-protein coupled receptor 139 (Homo sapiens). The assay can be described thus: Agonist activity at human GPR139 expressed in CHO-K1 cells assessed as increase in calcium flux by calcium 5 dye based FLIPR assay relative to JNJ63533054. The format is functional, cell-based. The following applies: filed as agonist. Background: Calcium flux is commonly read through the fluorescence of an indicator in the cells.

For assay [3], the target named is T2, Probable G-protein coupled receptor 139 (Homo sapiens, UniProt Q6DWJ6).
T2 sequence (Q6DWJ6 whole entry): T1 sequence (whole entry)
Nature of the assay: Agonist activity at human GPR139 expressed in CHO-K1 cells assessed as increase in calcium flux by calcium 5 dye based FLIPR assay. It is filed as functional, cell-based.

Assay [4] deals with T2, Probable G-protein coupled receptor 139. Nature of the assay: Agonist activity at human GPR139 expressed in CHO-K1 cells assessed as induction of beta-arrestin 2 recruitment incubated for 90 mins by PathHunter assay. It is filed as cell-based.
Assay [5] addresses T3, Probable G-protein coupled receptor 139 (Rattus norvegicus, UniProt P0C0W8).
T3 sequence (P0C0W8 whole entry): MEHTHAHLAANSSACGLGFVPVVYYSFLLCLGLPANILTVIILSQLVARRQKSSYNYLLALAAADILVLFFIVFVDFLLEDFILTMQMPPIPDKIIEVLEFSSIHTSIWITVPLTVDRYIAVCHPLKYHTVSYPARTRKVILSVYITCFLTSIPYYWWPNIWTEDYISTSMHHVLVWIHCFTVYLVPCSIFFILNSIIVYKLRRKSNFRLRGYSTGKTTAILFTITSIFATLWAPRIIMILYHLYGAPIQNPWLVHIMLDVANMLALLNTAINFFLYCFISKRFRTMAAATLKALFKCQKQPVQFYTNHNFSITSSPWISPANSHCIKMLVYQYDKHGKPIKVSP
Nature of the assay: Agonist activity at rat GPR139 expressed in CHO-K1 cells assessed as increase in calcium flux by calcium 5 dye based FLIPR assay. The format is cell-based.

The target of assay [6] is T4, Probable G-protein coupled receptor 139 (Rattus norvegicus) (UniProt P0C0W8).
T4 sequence (whole entry): T3 sequence (P0C0W8 whole entry)
The assay can be described thus: Agonist activity at rat GPR139 expressed in CHO-K1 cells assessed as increase in calcium flux by calcium 5 dye based FLIPR assay relative to JNJ63533054. The format is cell-based.

Turning to `C[C@H](NC(=O)Cn1nc2c(NC3COC3)ccnn2c1=O)c1ccc(OC(F)(F)F)cc1`, the Emax in assay [1] was 25%; in assay [2], greater than 80%; in assay [6] (filed as agonist), 50%. Moreover, the values for the concentration giving a half-maximal response (EC50) in assay [3] (cho-k1), in assay [4] and in assay [5] were 1 nM, no less than 100 nM and no less than 100 nM, respectively.

In the case of `C[C@H](NC(=O)Cn1nc2c(NC3COC3)ccnn2c1=O)c1ccc(Cl)c(F)c1`, the Emax in assay [1] (filed as agonist), in assay [2] and in assay [6] (filed as agonist) was greater than 80% in each case. Moreover, the figures for the EC50 in assay [3], in assay [4] (cho-k1) and in assay [5] (cho-k1) were less than 1 nM, 10 nM and 1 nM, respectively.

In the case of `C[C@H](NC(=O)Cn1nc2cc(-c3ccccc3)ccn2c1=O)c1ccc(Cl)c(F)c1`, the Emax in assay [1] (filed as agonist), in assay [2] and in assay [6] (filed as agonist) was greater than 80% each time. Also, the concentration for a half-maximal effect (EC50) in assay [3], in assay [4] and in assay [5] was less than 1 nM throughout.

For `Cc1cnn2c(=O)n(CC(=O)N[C@@H](C)c3ccc(OC(F)(F)F)cc3)nc2c1`, the maximal effect (Emax) in assay [1] (filed as agonist) was 50%; in assay [2], greater than 80%; in assay [6] (filed as agonist), 50%. Besides, the 50% effective concentration (EC50) was 1 nM in assay [3] (cho-k1), no less than 100 nM in assay [4] and no less than 100 nM in assay [5].

As for `C[C@H](NC(=O)Cn1nc2ncccn2c1=O)c1ccc(OC(F)(F)F)c(F)c1`, the Emax in assay [1] (filed as agonist) was 25%; in assay [2], greater than 80%; in assay [6], less than 25%. The values for the EC50 in assay [3] (cho-k1), in assay [4] and in assay [5] were 1 nM, no less than 100 nM and no less than 100 nM, respectively.

As to `C[C@H](NC(=O)Cn1nc2c(N3CCC34CNC4)cccn2c1=O)c1ccc(Cl)c(F)c1`, the results for the maximal response (Emax) in assay [1], in assay [2] and in assay [6] (filed as agonist) were 25%, greater than 80% and greater than 80%, respectively. Besides, the EC50 in assay [3] (cho-k1) is 1 nM; in assay [4], no less than 100 nM; in assay [5] (cho-k1), 10 nM.

For the molecule `Cc1ccc2nn(CC(=O)N[C@@H](C)c3ccc(OC(F)(F)F)cc3)c(=O)n2c1`, the maximal response (Emax) is greater than 80% in assay [1] (filed as agonist), greater than 80% in assay [2] and 50% in assay [6] (filed as agonist). Also, the concentration for a half-maximal effect (EC50) in assay [3] is less than 1 nM; in assay [4] (cho-k1), 1 nM; in assay [5] it was less than 1 nM.

With `COc1ccc2nn(CC(=O)N[C@@H](C)c3ccc(Cl)c(F)c3)c(=O)n2n1`, the values for the maximum response (Emax) in assay [1] (filed as agonist), in assay [2] and in assay [6] (filed as agonist) were 50%, greater than 80% and 50%, respectively. Besides, the half-maximal effective concentration (EC50) was less than 1 nM in assay [3], less than 1 nM in assay [4] and 1 nM in assay [5] (cho-k1).

Take `C[C@H](NC(=O)Cn1nc2cc(N3CCC[C@@H](O)C3)ccn2c1=O)c1ccc(OC(F)(F)F)cc1`: the Emax in assay [1] (filed as agonist), in assay [2] and in assay [6] (filed as agonist) was greater than 80% throughout. The results for the EC50 in assay [3] (cho-k1), in assay [4] and in assay [5] (cho-k1) were 1 nM, no less than 100 nM and 1 nM, respectively.

Take `Cc1cc(Cl)ccc1[C@H](C)NC(=O)Cn1nc2ncccn2c1=O`: the maximal effect (Emax) in assay [1] (filed as agonist) is 50%; in assay [2], greater than 80%; in assay [6], 25%. Also, the concentration giving a half-maximal response (EC50) is 1 nM in assay [3] (cho-k1), no less than 100 nM in assay [4] and no less than 100 nM in assay [5].

Turning to `C[C@H](NC(=O)Cn1nc2cccnn2c1=O)c1ccc(Cl)cc1`, the Emax in assay [1] is 25%; in assay [2] it was greater than 80%; in assay [6] (filed as agonist) it was 50%. For the same molecule, the EC50 was 1 nM in assay [3] (cho-k1), no less than 100 nM in assay [4] and 10 nM in assay [5] (cho-k1).

Take `C[C@H](NC(=O)Cn1nc2ccccn2c1=O)c1cnc(C(F)(F)F)nc1`: the Emax in assay [1] is 25%; in assay [2] it was 50%; in assay [6], less than 25%. In addition, the EC50 in assay [3], in assay [4] and in assay [5] was no less than 100 nM in each case.

Consider `C[C@H](NC(=O)Cn1nc2cc(Cl)cnn2c1=O)c1ccc(Cl)c(F)c1`, for which the Emax in assay [1] (filed as agonist) is 50%; in assay [2] it was greater than 80%; in assay [6] (filed as agonist), greater than 80%. The EC50 in assay [3] was less than 1 nM; in assay [4] (cho-k1) it was 1 nM; in assay [5] (cho-k1) it was 1 nM.

On to `C[C@H](NC(=O)Cn1nc2cc(Cl)ccn2c1=O)c1ccc(Cl)c(F)c1`, for which the maximum response (Emax) in assay [1] (filed as agonist), in assay [2] and in assay [6] (filed as agonist) was greater than 80% each time. For the same molecule, the 50% effective concentration (EC50) in assay [3] was less than 1 nM; in assay [4] (cho-k1) it was 1 nM; in assay [5], less than 1 nM.

Take `C[C@H](NC(=O)Cn1nc2cc(N3CCOCC3)ccn2c1=O)c1ccc(OC(F)(F)F)cc1`: the maximum response (Emax) in assay [1] (filed as agonist) is 50%; in assay [2] it was greater than 80%; in assay [6] (filed as agonist), greater than 80%. The figures for the EC50 in assay [3] (cho-k1), in assay [4] and in assay [5] (cho-k1) were 1 nM, no less than 100 nM and 1 nM, respectively.

As to `COc1nc2nn(CC(=O)N[C@@H](C)c3ccc(Cl)c(F)c3)c(=O)n2cc1C`, the Emax in assay [1] (filed as agonist), in assay [2] and in assay [6] (filed as agonist) was greater than 80% throughout. Moreover, the EC50 in assay [3], in assay [4] and in assay [5] was less than 1 nM throughout.

For the molecule `C[C@H](NC(=O)Cn1nc2ncc(Cl)cn2c1=O)c1ccc(Cl)c(F)c1`, the Emax in assay [1] (filed as agonist) is 50%; in assay [2] it was greater than 80%; in assay [6] (filed as agonist), greater than 80%. Moreover, the concentration giving a half-maximal response (EC50) was less than 1 nM in assay [3], no less than 100 nM in assay [4] and 1 nM in assay [5] (cho-k1).

As for `C[C@H](NC(=O)Cn1nc2c(NCC(F)F)ccnn2c1=O)c1ccc(OC(F)(F)F)cc1`, the figures for the Emax in assay [1], in assay [2] and in assay [6] were 25%, greater than 80% and 25%, respectively. In addition, the half-maximal effective concentration (EC50) is less than 1 nM in assay [3], 1 nM in assay [4] (cho-k1) and 1 nM in assay [5] (cho-k1).

As for `COc1cnn2c(=O)n(CC(=O)N[C@@H](C)c3ccc(Cl)c(F)c3)nc2c1`, the maximal response (Emax) in assay [1] (filed as agonist), in assay [2] and in assay [6] (filed as agonist) was greater than 80% each time. Also, the 50% effective concentration (EC50) is less than 1 nM in assay [3], 1 nM in assay [4] (cho-k1) and less than 1 nM in assay [5].

For the molecule `C[C@H](NC(=O)Cn1nc2cccc(N3CCCCC3)n2c1=O)c1ccc(OC(F)(F)F)cc1`, the Emax in assay [1] (filed as agonist), in assay [2] and in assay [6] (filed as agonist) was 50% in each case. In addition, the EC50 in assay [3] is less than 1 nM; in assay [4] it was less than 1 nM; in assay [5] (cho-k1), 1 nM.

In the case of `C[C@H](NC(=O)Cn1nc2cc(C3CC3)cnn2c1=O)c1ccc(Cl)c(F)c1`, the Emax in assay [1] (filed as agonist), in assay [2] and in assay [6] (filed as agonist) was greater than 80% each time. Moreover, the concentration giving a half-maximal response (EC50) is less than 1 nM in assay [3], 1 nM in assay [4] (cho-k1) and less than 1 nM in assay [5].

With `COc1cccn2c(=O)n(CC(=O)N[C@@H](C)c3ccc(C)cc3)nc12`, the Emax in assay [1] (filed as agonist) was 50%; in assay [2] it was greater than 80%; in assay [6] (filed as agonist), 50%. Further, the concentration giving a half-maximal response (EC50) in assay [3] was less than 1 nM; in assay [4], less than 1 nM; in assay [5] (cho-k1), 1 nM.

On to `Cc1ccnn2c(=O)n(CC(=O)N[C@@H](C)c3ccc(Cl)c(F)c3)nc12`, for which the maximum response (Emax) in assay [1] (filed as agonist), in assay [2] and in assay [6] (filed as agonist) was greater than 80% throughout. The EC50 in assay [3] is less than 1 nM; in assay [4] (cho-k1), 10 nM; in assay [5] (cho-k1) it was 1 nM.

In the case of `C[C@H](NC(=O)Cn1nc2ccc(F)cn2c1=O)c1ccc(Cl)c(F)c1`, the Emax in assay [1] (filed as agonist), in assay [2] and in assay [6] (filed as agonist) was greater than 80% in each case. Besides, the figures for the EC50 in assay [3], in assay [4] (cho-k1) and in assay [5] were less than 1 nM, 1 nM and less than 1 nM, respectively.

A word on the Emax: it is the size of the effect at its maximum, as opposed to the concentration needed. For orientation: EC50 means the concentration needed to bring the measured effect to its halfway point.
